Measured values taken from patent US20230286969A1, “AROMATIC SPIRO RING AMIDE DERIVATIVES FOR THE TREATMENT AND PROPHYLAXIS OF HEPATITIS B VIRUS INFECTION” (Hoffmann-La Roche Inc., priority 2020, published 2023).
Read-outs that look alike come from different tables or passages of the source.

Experiments:
Type in all cases: cell-based
HBeAg = experiment: PHH HBV natural infection assay, HBeAg (alphalisa)
How it was run: (§1)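 Primary human hepatocytes infected with HBV at 200 GE/cell plus 4% PEG8000 for 24 h, then sandwich-cultured 72 h. Compounds were added in two refreshes 72 h apart. HBsAg and HBeAg in supernatant measured by AlphaLISA.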

HBsAg = experiment: PHH HBV natural infection assay, HBsAg (alphalisa)
How it was run: as §1

[1] = PHH natural infection assay, cytotoxicity (Cell Counting Kit-8); conditions: human, HBV-infected primary human hepatocytes, CCK8, end of treatment
How it was run: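 HBV-infected at 200 GE/cell with 4% PEG8000 for 24 h, then sandwich-cultured 72 h in 1% DMSO and 0.25 mg/mL matrix gel. Compound added twice at 72-h intervals; supernatant HBsAg and HBeAg read by AlphaLISA, HBV DNA by quantitative fluorescence PCR kit. Cytotoxicity by CCK-8.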

[2] = Hepatitis B virus, Hepatocyte, 72 h, read-out: HbeAg IC50, HBV-infected primary human hepatocytes, supernatant, compound medium refreshed two times with 72-hour interval
[3] = Hepatitis B virus, Hepatocyte, 72 h, read-out: HBsAg IC50, HBV-infected primary human hepatocytes, supernatant, compound medium refreshed two times with 72-hour interval

SMILES | IC50 (HBeAg; [2]) [µM] | IC50 (HBsAg; [3]) [µM] | CC50 at 144 h [1] [µM] | IC50 (HBeAg; read-out: HbeAg IC50, HBV-infected primary human hepatocytes, supernatant, compound medium refreshed two times with 72-hour interval) [µM] | IC50 (HBsAg; read-out: HBsAg IC50, HBV-infected primary human hepatocytes, supernatant, compound medium refreshed two times with 72-hour interval) [µM]
CNS(=O)(=O)c1ccc(C(=O)NC2CC3(C2)CC(c2nc4cc(Cl)ccc4o2)C3)o1 (stereo not drawn) [Example 88, N-[6-(5-chloro-1,3-benzoxazol-2-yl)spiro[3.3]heptan-2-yl]-5-(methylsulfamoyl)furan-2-carboxamide] | 0.687 | 1 | > 10 |  | 
O=C(NC1CC2(C1)CC(c1nc3cc(Cl)ccc3o1)C2)c1ccc(S(=O)(=O)NC(=O)C2CCOCC2)o1 (stereo not drawn) [Example 87, N-[[5-[[6-(5-chloro-1,3-benzoxazol-2-yl)spiro[3.3]heptan-2-yl]carbamoyl]-2-furyl]sulfonyl]tetrahydropyran-4-carboxamide] | 0.981 | 1.3 | > 10 |  | 
NC(=O)c1ccc(C(=O)NC2CC3(C2)CC(c2nc4cc(Cl)ccc4o2)C3)o1 (stereo not drawn) [Example 11, N2-[6-(5-Chloro-1,3-benzoxazol-2-yl)spiro[3.3]heptan-2-yl]furan-2,5-dicarboxamide] | 5.22 | 5.88 | > 10 |  | 
O=C(NC1CC2(C1)CC(c1nc3cc(Cl)ccc3o1)C2)c1ccc(CS(=O)(=O)C2CC2)o1 (stereo not drawn) [Example 31, N-[6-(5-chloro-1,3-benzoxazol-2-yl)spiro[3.3]heptan-2-yl]-5-(cyclopropylsulfonylmethyl)furan-2-carboxamide] | 6.98 | 7.56 | > 100 |  | 
O=C(NC1CC2(C1)CC(c1nc3cc(Cl)ccc3o1)C2)c1ccc(S(=O)(=O)C2COC2)o1 (stereo not drawn) [Example 18, N-[6-(5-chloro-1,3-benzoxazol-2-yl)spiro[3.3]heptan-2-yl]-5-(oxetan-3-ylsulfonyl)furan-2-carboxamide] | 1.81 | 3.27 | 72.1 |  | 
O=C(NC1CC2(C1)CC(c1nc3cc(Cl)ccc3o1)C2)c1ccc(S2(=O)=NCCC2)o1 (stereo not drawn) [Example 61, N-[6-(5-chloro-1,3-benzoxazol-2-yl)spiro[3.3]heptan-2-yl]-5-(1-oxo-4,5-dihydro-3H-isothiazol-1-yl)furan-2-carboxamide] | 3.14 | 3.65 | > 100 |  | 
[H][C@]1(NC(=O)c2ccc([S@](=N)(=O)C3CC3)o2)C[C@]2(C1)C[C@]([H])(c1nc3cc(Cl)ccc3o1)C2 (stereo partly drawn) [Example 53-c, (Ra)—N-[6-(5-chloro-1,3-benzoxazol-2-yl)spiro[3.3]heptan-2-yl]-5-[(R)-cyclopropylsulfonimidoyl]furan-2-carboxamide] | 0.621 | 0.65 | 91.9 |  | 
O=C(NC1CC2(C1)CC(c1nc3cc(Cl)ccc3o1)C2)c1ccc(S(=O)(=O)CC2CC(F)(F)C2)o1 (stereo not drawn) [Example 27, N-[6-(5-chloro-1,3-benzoxazol-2-yl)spiro[3.3]heptan-2-yl]-5-[(3,3-difluorocyclobutyl)methylsulfonyl]furan-2-carboxamide] | 0.116 | 0.152 | > 100 |  | 
CCOC(=O)NS(=O)(=O)c1ccc(C(=O)N[C@H]2CC3(C2)C[C@H](c2nc4cc(Cl)ccc4o2)C3)o1 (single isomer, unassigned) [Example 74, (Sa)-ethyl N-[[5-[[6-(5-chloro-1,3-benzoxazol-2-yl)spiro[3.3]heptan-2-yl]carbamoyl]-2-furyl]sulfonyl]carbamate, or (Ra)-ethyl N-[[5-[[6-(5-chloro-1,3-benzoxazol-2-yl)spiro[3.3]heptan-2-yl]carbamoyl]-2-furyl]sulfonyl]carbamate] | 5.92 | 6.67 | > 10 |  | 
O=C(NC1CC2(C1)CC(c1nc3cc(Cl)ccc3o1)C2)c1ccc(S(=O)(=O)CC2COC2)o1 (stereo not drawn) [Example 24, N-[6-(5-chloro-1,3-benzoxazol-2-yl)spiro[3.3]heptan-2-yl]-5-(oxetan-3-ylmethylsulfonyl)furan-2-carboxamide] | 2.33 | 2.44 | 95.3 |  | 
C[S+]([O-])c1ccc(C(=O)NC2CC3(C2)CC(c2nc4cc(Cl)ccc4o2)C3)o1 (stereo not drawn) [Example 14, N-[6-(5-chloro-1,3-benzoxazol-2-yl)spiro[3.3]heptan-2-yl]-5-methylsulfinyl-furan-2-carboxamide] | 0.854 | 1.61 | 76.5 |  | 
O=C(NC1CC2(C1)CC(c1nc3cc(Cl)ccc3o1)C2)c1ccc([S+]([O-])CC2CC2)o1 (stereo not drawn) [Example 19, N-[6-(5-chloro-1,3-benzoxazol-2-yl)spiro[3.3]heptan-2-yl]-5-(cyclopropylmethylsulfinyl)furan-2-carboxamide] | 0.045 | 0.036 | 94.5 |  | 
O=C(N[C@H]1CC2(C1)C[C@H](c1nc3cc(Cl)ccc3o1)C2)c1ccc(S(=O)(=O)NC(=O)C2CC2)o1 (single isomer, unassigned) [Example 71, (Sa)—N-[6-(5-chloro-1,3-benzoxazol-2-yl)spiro[3.3]heptan-2-yl]-5-(cyclopropanecarbonylsulfamoyl)furan-2-carboxamide, or (Ra)—N-[6-(5-chloro-1,3-benzoxazol-2-yl)spiro[3.3]heptan-2-yl]-5-(cyclopropanecarbonylsulfamoyl)furan-2-carboxamide] | 3.28 | 3.66 | > 100 |  | 
CS(=N)(=O)c1ccc(C(=O)NC2CC3(C2)CC(c2nc4cc(Cl)ccc4o2)C3)o1 (single isomer, unassigned) [Example 52-a, N-[6-(5-chloro-1,3-benzoxazol-2-yl)spiro[3.3]heptan-2-yl]-5-(methylsulfonimidoyl)furan-2-carboxamide] |  |  | > 100 | 1.77 | 4.26
N=S(=O)(CC1COC1)c1ccc(C(=O)NC2CC3(C2)CC(c2nc4cc(Cl)ccc4o2)C3)o1 (stereo not drawn) [Example 56, N-[6-(5-chloro-1,3-benzoxazol-2-yl)spiro[3.3]heptan-2-yl]-5-(oxetan-3-ylmethylsulfonimidoyl)furan-2-carboxamide] | 2.9 | 4.41 | > 100 |  | 
N=S(=O)(c1ccc(C(=O)NC2CC3(C2)CC(c2nc4cc(Cl)ccc4o2)C3)o1)C1CC1 (stereo not drawn) [Example 53, N-[6-(5-chloro-1,3-benzoxazol-2-yl)spiro[3.3]heptan-2-yl]-5-(cyclopropylsulfonimidoyl)furan-2-carboxamide] | 0.394 | 0.494 | > 10 |  | 
CCS(=O)(=O)c1cc(C)c(C(=O)NC2CC3(C2)CC(c2nc4cc(Cl)ccc4o2)C3)o1 (stereo not drawn) [Example 37, N-[6-(5-chloro-1,3-benzoxazol-2-yl)spiro[3.3]heptan-2-yl]-5-ethylsulfonyl-3-methyl-furan-2-carboxamide] | 5.72 | 9.38 | > 100 |  | 
O=C(N[C@H]1CC2(C1)C[C@H](c1nc3cc(Cl)ccc3o1)C2)c1ccc(S(=O)(=O)NC(=O)C2CCOC2)o1 (stereo partly drawn) [Example 77, (Sa)—N-[6-(5-chloro-1,3-benzoxazol-2-yl)spiro[3.3]heptan-2-yl]-5-(tetrahydrofuran-3-carbonylsulfamoyl)furan-2-carboxamide, or (Ra)—N-[6-(5-chloro-1,3-benzoxazol-2-yl)spiro[3.3]heptan-2-yl]-5-(tetrahydrofuran-3-carbonylsulfamoyl)furan-2-carboxamide] | 0.563 | 1.16 | > 100 |  | 
O=C(NC1CC2(C1)CC(c1nc3cc(Cl)ccc3o1)C2)c1ccc(C(F)(F)F)o1 (stereo not drawn) [Example 1, N-[6-(5-chloro-1,3-benzoxazol-2-yl)spiro[3.3]heptan-2-yl]-5-(trifluoromethyl)furan-2-carboxamide] | 2.29 | 3.63 | 96.8 |  | 
CC(C)CS(=O)(=O)c1ccc(C(=O)NC2CC3(C2)CC(c2nc4cc(Cl)ccc4o2)C3)o1 (stereo not drawn) [Example 22, N-[6-(5-chloro-1,3-benzoxazol-2-yl)spiro[3.3]heptan-2-yl]-5-isobutylsulfonyl-furan-2-carboxamide] | 0.264 | 0.506 | 75.6 |  | 
COCC(=O)NS(=O)(=O)c1ccc(C(=O)N[C@H]2CC3(C2)C[C@H](c2nc4cc(Cl)ccc4o2)C3)o1 (single isomer, unassigned) [Example 73, (Sa)—N-[6-(5-chloro-1,3-benzoxazol-2-yl)spiro[3.3]heptan-2-yl]-5-[(2-methoxyacetyl)sulfamoyl]furan-2-carboxamide, or (Ra)—N-[6-(5-chloro-1,3-benzoxazol-2-yl)spiro[3.3]heptan-2-yl]-5-[(2-methoxyacetyl)sulfamoyl]furan-2-carboxamide] | 0.256 | 0.416 | > 100 |  | 
O=C(N[C@H]1CC2(C1)C[C@H](c1nc3cc(Cl)ccc3o1)C2)c1ccc(S(=O)(=O)NC(=O)C23CC(C2)C3)o1 (single isomer, unassigned) [Example 76, (Sa)-5-(bicyclo[1.1.1]pentane-1-carbonylsulfamoyl)-N-[6-(5-chloro-1,3-benzoxazol-2-yl)spiro[3.3]heptan-2-yl]furan-2-carboxamide, or (Ra)-5-(bicyclo[1.1.1]pentane-1-carbonylsulfamoyl)-N-[6-(5-chloro-1,3-benzoxazol-2-yl)spiro[3.3]heptan-2-yl]furan-2-carboxamide] | 1.99 | 2.84 | > 10 |  | 
CC(=O)NS(=O)(=O)c1ccc(C(=O)NC2CC3(C2)CC(c2nc4cc(Cl)ccc4o2)C3)o1 (stereo not drawn) [Example 80, 5-(acetylsulfamoyl)-N-[6-(5-chloro-1,3-benzoxazol-2-yl)spiro[3.3]heptan-2-yl]furan-2-carboxamide] | 1.8 | 2.77 | > 100 |  | 
